Columns and labels:
SMARCA4 = target: T1, SMARCA4 (Homo sapiens, UniProt P51532); assay: SMARCA4 HiBiT degradation assay in HeLa cells; assay type: cell-based; conditions: 18 hours, highest concentration 10 μM
T1 construct: SMARCA4-HiBiT knock-in Hela monoclonal cell (CS3023226); host or cells: HeLa monoclonal cells with heterozygous HiBiT knock-in at the endogenous SMARCA4 locus
Protocol: (§1) SMARCA2 HiBiT and SMARCA4 HiBiT Degradation Assay
HiBiT peptide knock-in of SMARCA2 in LgBiT expressing HEK293T cells was performed by CRISPR-mediated tagging system as described Promega. […] SMARCA2-HiBiT knock-in Hela monoclonal cell (CS302366) and SMARCA4-HiBiT knock-in Hela monoclonal cell (CS3023226) were purchased from Promega.
(§2) SMARCA2 HiBiT and SMARCA4 HiBiT Degradation Assay in HeLa Cells
Remove appropriate volume of resuspended cells from culture flask to accommodate 2500 cells/well @ 20 μL/well. […] Spin down at 1000 rpm for 5 min using tabletop centrifuge (SPINCHRON 15, Beckman).
Dispense test compounds onto plates using digital liquid dispenser (D300E, Tecan). Incubate plates in humidified tissue culture incubator @37° C. for 18 hours. […] Raw data files and compound information reports are swept into centralized data lake and deconvoluted using automated scripts designed by TetraScience, Inc. Data analysis, curve-fitting and reporting done in Dotmatics Informatics Suite using Screening Ultra module.

SMARCA2 = target: T2, SMARCA2 (Homo sapiens, UniProt P51531); assay: SMARCA2 HiBiT degradation assay in HeLa cells; assay type: cell-based; conditions: 18 hours, highest concentration 10 μM
T2 construct: SMARCA2-HiBiT knock-in Hela monoclonal cell (CS302366); host or cells: HeLa monoclonal cells with heterozygous HiBiT knock-in at the endogenous SMARCA2 locus
Protocol: as §1
HiBiT peptide knock-in of SMARCA2 in LgBiT expressing HEK293T cells was performed by CRISPR-mediated tagging system as described Promega. The homozygous HiBiT knock-in on c-terminus SMARCA2 was confirmed by sanger sequence. SMARCA2-HiBiT knock-in Hela monoclonal cell (CS302366) and SMARCA4-HiBiT knock-in Hela monoclonal cell (CS3023226) were purchased from Promega. The heterozygous HiBiT-knock-in was confirmed by sanger sequence in both SMARCA2-HiBiT and SMARCA4-HiBiT monoclonal cells.
as §2
Dispense 10 ul aliquot of prepared Hela-SMARCA2-HiBiT or Hela-SMARCA4-HiBiT cells (1:1 ratio of cells:Trypan Blue (#1450013, Bio-Rad)) onto cell counting slide (#145-0011, Bio-Rad) and obtain cell density and cell viability using cell counter (TC20, Bio-Rad). Remove appropriate volume of resuspended cells from culture flask to accommodate 2500 cells/well @ 20 μL/well. Transfer Hela-HiBiT cells to 50 mL conical (#430290, Corning). Spin down at 1000 rpm for 5 min using tabletop centrifuge (SPINCHRON 15, Beckman). Discard supernatant and resuspend cell pellet in modified EMEM (#30-2003, ATCC) cell culture media containing 10% FBS (F2422-500ML, Sigma), and 1× Penicillin/Streptomycin ([…]) (30-002-CI, Corning) to a cell density of 125,000 cells/mL. Dispense 20 μLof resuspended Hela-HiBit cells per well in 384-well TC treated plate (#12-565-343, Thermo Scientific) using standard cassette (#50950372, Thermo Scientific) on Multidrop Combi (#5840310, Thermo Scientific) inside laminar flow cabinet.
Compounds were dissolved in DMSO to make 10 mM stock and 3-fold series dilutions were further conducted keeping the highest concentration 10 μM. Dispense test compounds onto plates using digital liquid dispenser (D300E, Tecan). Incubate plates in humidified tissue culture incubator @37° C. for 18 hours. Add 20 μL of prepared Nano-Glo® HiBiT Lytic detection buffer (N3050, Promega) to each well of 384-well plate using small tube cassette (#24073295, Thermo Scientific) on Multidrop Combi, incubate @ RT for 30-60 min. Read plates on microplate reader (Envision 2105, PerkinElmer) using 384 well Ultra-Sensitive luminescence mode. Raw data files and compound information reports are swept into centralized data lake and deconvoluted using automated scripts designed by TetraScience, Inc. Data analysis, curve-fitting and reporting done in Dotmatics Informatics Suite using Screening Ultra module.

T1 sequence (P51532 whole entry): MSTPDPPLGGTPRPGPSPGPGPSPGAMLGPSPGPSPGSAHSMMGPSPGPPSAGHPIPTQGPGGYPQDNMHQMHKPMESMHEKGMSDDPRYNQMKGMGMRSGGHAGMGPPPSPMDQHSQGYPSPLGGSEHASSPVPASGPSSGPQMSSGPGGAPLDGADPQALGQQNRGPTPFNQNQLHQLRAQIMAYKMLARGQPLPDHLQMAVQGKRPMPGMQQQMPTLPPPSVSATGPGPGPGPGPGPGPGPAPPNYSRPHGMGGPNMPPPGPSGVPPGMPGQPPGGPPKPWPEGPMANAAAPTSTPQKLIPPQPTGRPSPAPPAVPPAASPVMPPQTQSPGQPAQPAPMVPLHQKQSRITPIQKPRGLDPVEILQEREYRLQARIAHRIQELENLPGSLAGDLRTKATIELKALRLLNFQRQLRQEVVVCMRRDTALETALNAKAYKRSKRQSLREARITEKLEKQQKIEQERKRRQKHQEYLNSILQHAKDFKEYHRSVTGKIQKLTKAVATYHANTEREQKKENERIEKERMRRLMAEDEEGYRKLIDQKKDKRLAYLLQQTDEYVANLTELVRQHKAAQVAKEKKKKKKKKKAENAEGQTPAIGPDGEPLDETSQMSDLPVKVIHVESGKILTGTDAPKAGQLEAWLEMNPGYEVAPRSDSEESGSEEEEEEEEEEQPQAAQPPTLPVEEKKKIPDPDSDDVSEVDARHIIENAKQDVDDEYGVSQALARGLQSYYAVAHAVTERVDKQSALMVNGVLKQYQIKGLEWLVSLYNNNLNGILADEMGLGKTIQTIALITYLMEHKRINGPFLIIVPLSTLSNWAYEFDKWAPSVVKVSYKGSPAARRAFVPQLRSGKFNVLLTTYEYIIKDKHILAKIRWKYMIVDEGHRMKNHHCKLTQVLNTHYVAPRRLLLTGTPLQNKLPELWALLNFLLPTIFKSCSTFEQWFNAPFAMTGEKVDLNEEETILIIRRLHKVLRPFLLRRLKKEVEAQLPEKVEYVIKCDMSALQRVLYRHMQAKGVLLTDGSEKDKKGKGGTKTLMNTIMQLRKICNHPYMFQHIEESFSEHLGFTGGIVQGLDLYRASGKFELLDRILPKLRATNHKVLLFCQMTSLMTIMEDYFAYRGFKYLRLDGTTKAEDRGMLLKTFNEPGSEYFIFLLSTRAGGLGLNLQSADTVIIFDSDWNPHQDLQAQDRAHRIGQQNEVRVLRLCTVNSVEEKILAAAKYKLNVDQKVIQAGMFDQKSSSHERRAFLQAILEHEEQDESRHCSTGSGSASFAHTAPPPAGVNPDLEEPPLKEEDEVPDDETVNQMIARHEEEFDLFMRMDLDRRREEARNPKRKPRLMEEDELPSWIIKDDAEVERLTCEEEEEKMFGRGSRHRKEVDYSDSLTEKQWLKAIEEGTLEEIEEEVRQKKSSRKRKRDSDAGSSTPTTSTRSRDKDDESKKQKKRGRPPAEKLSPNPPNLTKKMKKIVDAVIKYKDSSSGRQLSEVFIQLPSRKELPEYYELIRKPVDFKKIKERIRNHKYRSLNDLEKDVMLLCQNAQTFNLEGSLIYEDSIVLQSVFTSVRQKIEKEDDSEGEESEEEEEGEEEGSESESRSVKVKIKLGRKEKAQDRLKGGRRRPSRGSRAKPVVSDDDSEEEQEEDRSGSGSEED
T2 sequence (P51531 whole entry): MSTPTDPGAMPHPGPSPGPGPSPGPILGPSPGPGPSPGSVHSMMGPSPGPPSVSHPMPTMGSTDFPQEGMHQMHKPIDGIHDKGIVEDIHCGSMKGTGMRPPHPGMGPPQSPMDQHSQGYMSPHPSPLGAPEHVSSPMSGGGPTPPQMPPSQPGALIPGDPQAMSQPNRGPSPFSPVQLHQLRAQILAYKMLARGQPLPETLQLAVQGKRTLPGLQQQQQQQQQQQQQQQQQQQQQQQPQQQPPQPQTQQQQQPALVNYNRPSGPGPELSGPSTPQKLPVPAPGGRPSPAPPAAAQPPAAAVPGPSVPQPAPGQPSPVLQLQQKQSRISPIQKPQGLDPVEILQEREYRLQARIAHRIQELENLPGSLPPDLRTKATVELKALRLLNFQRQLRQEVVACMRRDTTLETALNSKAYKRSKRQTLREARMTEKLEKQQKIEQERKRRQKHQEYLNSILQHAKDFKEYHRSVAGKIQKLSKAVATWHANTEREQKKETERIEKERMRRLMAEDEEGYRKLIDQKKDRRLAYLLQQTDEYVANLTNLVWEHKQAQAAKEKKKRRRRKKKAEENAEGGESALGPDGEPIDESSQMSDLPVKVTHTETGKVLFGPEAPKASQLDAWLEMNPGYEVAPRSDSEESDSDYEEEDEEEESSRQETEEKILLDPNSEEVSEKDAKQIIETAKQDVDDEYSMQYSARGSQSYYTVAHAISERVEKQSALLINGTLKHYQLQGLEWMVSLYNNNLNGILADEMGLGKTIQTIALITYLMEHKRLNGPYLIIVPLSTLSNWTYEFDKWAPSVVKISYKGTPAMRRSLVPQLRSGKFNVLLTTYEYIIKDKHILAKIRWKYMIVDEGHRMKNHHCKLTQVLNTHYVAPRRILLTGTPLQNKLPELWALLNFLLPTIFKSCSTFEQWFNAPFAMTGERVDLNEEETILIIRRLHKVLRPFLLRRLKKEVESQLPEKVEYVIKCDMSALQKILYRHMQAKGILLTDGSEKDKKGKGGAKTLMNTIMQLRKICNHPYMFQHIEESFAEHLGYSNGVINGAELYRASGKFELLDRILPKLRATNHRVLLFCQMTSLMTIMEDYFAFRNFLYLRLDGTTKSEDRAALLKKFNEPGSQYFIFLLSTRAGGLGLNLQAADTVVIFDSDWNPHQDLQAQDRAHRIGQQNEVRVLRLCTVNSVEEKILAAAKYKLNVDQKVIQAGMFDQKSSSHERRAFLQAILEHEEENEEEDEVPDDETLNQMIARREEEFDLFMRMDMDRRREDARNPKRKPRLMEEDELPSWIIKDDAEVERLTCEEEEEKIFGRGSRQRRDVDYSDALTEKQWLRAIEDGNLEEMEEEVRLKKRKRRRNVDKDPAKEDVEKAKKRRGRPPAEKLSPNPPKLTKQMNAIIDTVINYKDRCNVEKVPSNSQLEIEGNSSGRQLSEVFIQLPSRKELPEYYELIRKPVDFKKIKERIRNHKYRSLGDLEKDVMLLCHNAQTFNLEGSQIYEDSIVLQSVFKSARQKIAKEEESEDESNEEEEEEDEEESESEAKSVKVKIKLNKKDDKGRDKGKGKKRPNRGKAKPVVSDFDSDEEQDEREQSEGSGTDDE

SMILES	DC50 (SMARCA4)	Dmax (SMARCA4)	DC50 (SMARCA2)	Dmax (SMARCA2)
CC[C@@]12CNc3nnc(-c4cccc(F)c4O)cc3N1C[C@H](Oc1cc(C)c(CN3CCC(c4ccc5c(c4)C(=O)N(C4CCC(=O)NC4=O)C5)CC3)cn1)C2 (stereo partly drawn) [Example 106, 3-(6-(1-((6-(((6aR,8R)-6a-ethyl-2-(3-fluoro-2-hydroxyphenyl)-5,6,6a,7,8,9-hexahydropyrrolo[1′,2′:4,5]pyrazino[2,3-c]pyridazin-8-yl)oxy)-4-methylpyridin-3-yl)methyl)piperidin-4-yl)-1-oxoisoindolin-2-yl)piperidine-2,6-dione]	100 to 1000 nM	< 50%	< 100 nM	> 75%
COc1cc(CN2CCN(c3ccc4c(c3)C(=O)N(C3CCC(=O)NC3=O)C4)CC2)cnc1O[C@H]1CN2c3cc(-c4cccc(F)c4O)nnc3NC[C@]2(C(F)F)C1 (stereo partly drawn) [Example 53, 3-(6-(4-((6-(((6aS,8R)-6a-(difluoromethyl)-2-(3-fluoro-2-hydroxyphenyl)-5,6,6a,7,8,9-hexahydropyrrolo[1′,2′:4,5]pyrazino[2,3-c]pyridazin-8-yl)oxy)-5-methoxypyridin-3-yl)methyl)piperazin-1-yl)-1-oxoisoindolin-2-yl)piperidine-2,6-dione]	< 100 nM	> 75%	< 100 nM	> 75%
Cc1cc(O[C@H]2CN3c4cc(-c5cccc(F)c5O)nnc4NC[C@]3(C)C2)cnc1CN1CCN(c2ccc3c(c2)C(=O)N([C@H]2CCC(=O)NC2=O)C3)CC1 [Example 82, (S)-3-(6-(4-((5-(((6aS,8R)-2-(3-fluoro-2-hydroxyphenyl)-6a-methyl-5,6,6a,7,8,9-hexahydropyrrolo[1′,2′:4,5]pyrazino[2,3-c]pyridazin-8-yl)oxy)-3-methylpyridin-2-yl)methyl)piperazin-1-yl)-1-oxoisoindolin-2-yl)piperidine-2,6-dione]	< 100 nM	50 to 75%	< 100 nM	> 75%
Cc1cc(O[C@H]2CN3c4cc(-c5cccc(F)c5O)nnc4NC[C@]3(C)C2)c(C)nc1CN1CCN(c2ccc3c(c2)C(=O)N([C@H]2CCC(=O)NC2=O)C3)CC1 [Example 80, (S)-3-(6-(4-((5-(((6aS,8R)-2-(3-fluoro-2-hydroxyphenyl)-6a-methyl-5,6,6a,7,8,9-hexahydropyrrolo[1′,2′:4,5]pyrazino[2,3-c]pyridazin-8-yl)oxy)-3,6-dimethylpyridin-2-yl)methyl)piperazin-1-yl)-1-oxoisoindolin-2-yl)piperidine-2,6-dione]	< 100 nM	50 to 75%	< 100 nM	> 75%
COc1cc(O[C@@H]2C[C@@H]3CNc4nnc(-c5cccc(Cl)c5O)cc4N3C2)ccc1CN1CCN(c2ccc3c(c2)C(=O)N(C2CCC(=O)NC2=O)C3)CC1 (stereo partly drawn) [Example 21, 3-(6-(4-(4-(((6aR,8R)-2-(3-chloro-2-hydroxyphenyl)-5,6,6a,7,8,9-hexahydropyrrolo[1′,2′:4,5]pyrazino[2,3-c]pyridazin-8-yl)oxy)-2-methoxybenzyl)piperazin-1-yl)-1-oxoisoindolin-2-yl)piperidine-2,6-dione]	< 100 nM	> 75%	< 100 nM	> 75%
CCc1nc(CN2CCC(c3ccc4c(c3)C(=O)N([C@H]3CCC(=O)NC3=O)C4)CC2)cnc1O[C@H]1CN2c3cc(-c4cccc(F)c4O)nnc3NC[C@@]2(CF)C1 [Example 68, (S)-3-(6-(1-((6-ethyl-5-(((6aR,8R)-2-(3-fluoro-2-hydroxyphenyl)-6a-(fluoromethyl)-5,6,6a,7,8,9-hexahydropyrrolo[1′,2′:4,5]pyrazino[2,3-c]pyridazin-8-yl)oxy)pyrazin-2-yl)methyl)piperidin-4-yl)-1-oxoisoindolin-2-yl)piperidine-2,6-dione]	> 1000 nM	< 50%	< 100 nM	> 75%
O=C1CCC(N2Cc3ccc(N4CCN(Cc5cnc(S[C@@H]6C[C@@H]7CNc8nnc(-c9cc(F)cc(F)c9O)cc8N7C6)nc5)CC4)cc3C2=O)C(=O)N1 (stereo partly drawn) [Example 26, 3-(6-(4-((2-(((6aR,8R)-2-(3,5-difluoro-2-hydroxyphenyl)-5,6,6a,7,8,9-hexa-hydropyrrolo[1′,2′:4,5]pyrazino[2,3-c]pyridazin-8-yl)thio)pyrimidin-5-yl)methyl)piperazin-1-yl)-1-oxoisoindolin-2-yl)piperidine-2,6-dione]	< 100 nM	> 75%	< 100 nM	> 75%
Cc1cc(O[C@H]2CN3c4cc(-c5cccc(F)c5O)nnc4NC[C@@]3(CF)C2)ncc1CN1CCN(c2ccc3c(c2)C(=O)N([C@H]2CCC(=O)NC2=O)C3)CC1 [Example 58, (S)-3-(6-(4-((6-(((6aR,8R)-2-(3-Fluoro-2-hydroxyphenyl)-6a-(fluoromethyl)-5,6,6a,7,8,9-hexahydropyrrolo[1′,2′:4,5]pyrazino[2,3-c]pyridazin-8-yl)oxy)-4-methylpyridin-3-yl)methyl)piperazin-1-yl)-1-oxoisoindolin-2-yl)piperidine-2,6-dione]	> 1000 nM	< 50%	< 100 nM	> 75%
CC[C@@]12CNc3nnc(-c4cccc(F)c4O)cc3N1C[C@H](Oc1nc(C)c(CN3CCC(c4ccc5c(c4)C(=O)N([C@H]4CCC(=O)NC4=O)C5)CC3)c(C)n1)C2 [Example 102, (S)-3-(6-(1-((2-(((6aR,8R)-6a-ethyl-2-(3-fluoro-2-hydroxyphenyl)-5,6,6a,7,8,9-hexahydropyrrolo[1′,2′:4,5]pyrazino[2,3-c]pyridazin-8-yl)oxy)-4,6-dimethylpyrimidin-5-yl)methyl)piperidin-4-yl)-1-oxoisoindolin-2-yl)piperidine-2,6-dione]	> 1000 nM	< 50%	< 100 nM	> 75%
O=C1CCC(N2Cc3ccc(N4CCN(Cc5ccc(O[C@@H]6C[C@@H]7CNc8nnc(-c9cc(F)cc(F)c9O)cc8N7C6)cc5F)CC4)cc3C2=O)C(=O)N1 (stereo partly drawn) [Example 13, 3-(6-(4-(4-(((6aR,8R)-2-(3,5-difluoro-2-hydroxyphenyl)-5,6,6a,7,8,9-hexahydropyrrolo[1′,2′:4,5]pyrazino[2,3-c]pyridazin-8-yl)oxy)-2-fluorobenzyl)piperazin-1-yl)-1-oxoisoindolin-2-yl)piperidine-2,6-dione]	< 100 nM	> 75%	< 100 nM	> 75%
Cc1cc(O[C@@H]2C[C@@H]3CNc4nnc(-c5cc(F)cc(F)c5O)cc4N3C2)cc(C)c1CN1CCN(c2ccc3c(c2)C(=O)N(C2CCC(=O)NC2=O)C3)CC1 (stereo partly drawn) [Example 17, 3-(6-(4-(4-(((6aR,8R)-2-(3,5-difluoro-2-hydroxyphenyl)-5,6,6a,7,8,9-hexahydropyrrolo[1′,2′:4,5]pyrazino[2,3-c]pyridazin-8-yl)oxy)-2,6-dimethylbenzyl)piperazin-1-yl)-1-oxoisoindolin-2-yl)piperidine-2,6-dione]	> 1000 nM	< 50%	< 100 nM	> 75%
CC[C@@]12CNc3nnc(-c4cccc(F)c4O)cc3N1C[C@H](Oc1cnc(CN3CCN(c4ccc5c(c4)C(=O)N([C@H]4CCC(=O)NC4=O)C5)CC3)c(C)n1)C2 [Example 57, (S)-3-(6-(4-((5-(((6aR,8R)-6a-ethyl-2-(3-fluoro-2-hydroxyphenyl)-5,6,6a,7,8,9-hexahydropyrrolo[1′,2′:4,5]pyrazino[2,3-c]pyridazin-8-yl)oxy)-3-methylpyrazin-2-yl)methyl)piperazin-1-yl)-1-oxoisoindolin-2-yl)piperidine-2,6-dione]	100 to 1000 nM	< 50%	< 100 nM	> 75%

Reference: patent US20240165244A1 (Prelude Therapeutics Incorporated, priority 2022, published 2024)
